Test system: embryonic heart explants
Format: cell-based
Conditions: explants in presence of thymosin β4 with 100 nM wortmanin, p<0.05
Source text: To test the effects of secreted thymosin β4 on cardiac cell migration, an embryonic heart explant system designed to assay cell migration and transformation events on a three-dimensional collagen gel was utilized. In this assay, explants of adjacent embryonic myocardium and endocardium from valve-forming regions were placed on a collagen gel with the endocardium adjacent to the collagen.
Outflow tract was dissected from E11.5 wild type mouse embryos and placed on collagen matrices as previously described. After 10 hours of attachment explants were incubated in 30 ng/300 μl thymosin β4 in PBS, PBS alone or thymosin β4 and 100 nM wortmanin. Cultures were carried out for 3-9 days at 37° C. 5% CO2 and fixed in 4% paraformaldehyde in PBS for 10 min at RT. Cells were counted for quantification of migration and distance using at least three separate explants under each condition for endothelial migration and eight separate explants for myocardial migration.
Paraformaldehyde-fixed explants were permeabilized for 10 min at RT with Permeabilize solution (10 mM PIPES pH6.8; 50 mMNaCl; 0.5% Triton X-100; 300 mM Sucrose; 3 mM MgCl2) and rinsed with PBS 2×5 min at RT. After a series of blocking and rinsing steps, detection antibodies were used and explants rinsed and incubated with Equilibration buffer (Anti-Fade kit) 10 min at room temperature. Explants were scooped to a glass microscope slide, covered, and examined by fluorescein microscopy. TUNEL assay was performed using ApopTag Plus Fluorescein In Situ Apoptosis detection kit (Intergen Company # S7111) as recommended.

SMILES: COC[C@H]1OC(=O)c2coc3c2[C@@]1(C)C1=C(C3=O)[C@@H]2CCC(=O)[C@@]2(C)C[C@H]1OC(C)=O [wortmanin, reference compound]
- beating frequency upon inhibition of ILK: significant reduction
- myocardial cell migration upon inhibition of ILK: significant reduction
